According to the supplement of paper PMC11061612:

Assays:
[1] = test system: NCI-H211 (Small Cell Lung Carcinoma); assay: combination Emax (second highest fraction inhibited in the dose matrix, 72 h); higher = more inhibition; extreme values may be limits of the assay
In short: (§1)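 After 24 hours at 37°C and 5% CO2 in 1536-well plates, cells in DMEM/F12 or RPMI plus 10% FBS received two-drug dose matrices for 72 hours. Viability came from CellTiter-Glo 2.0 luminescence and was scaled as inhibition, anchored at 0 by vehicle wells and at 1 by blank wells. Combination Emax is taken as the second-highest inhibition in the matrix, and Bliss excess as the observed combination effect less EA + EB − EA·EB, with EA and EB the single-agent effects.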

[2] = test system: NCI-H1781 (Lung Adenocarcinoma); assay: as above
In short: as §1

[3] = test system: SW756 (Cervical Carcinoma); assay: as above
In short: as §1

[4] = test system: NCI-H211 (Small Cell Lung Carcinoma); assay: Bliss excess, mean over the matrix (fraction); higher = more synergy
In short: as §1
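Throughout, for Bliss excess, mean over the matrix: after 72 h of two-drug dosing.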

Structure (SMILES) | combination Emax [1] | combination Emax [2] | combination Emax [3] | Bliss excess [4]
C[C@@H](c1ccc2nccn2c1)n1nnc2ncc(-c3cnn(C)c3)nc21 [Savolitinib] + CC1(C)CCC(CN2CCN(c3ccc(C(=O)NS(=O)(=O)c4ccc(NCC5CCOCC5)c([N+](=O)[O-])c4)c(Oc4cnc5[nH]ccc5c4)c3)CC2)=C(c2ccc(Cl)cc2)C1 [Venetoclax] (first compound max 1 µM, 7x7, partner max 1 µM) | 0.744 | 0.208 | 0.1 | 0.0317
CC(=O)c1c(C)c2cnc(Nc3ccc(N4CCNCC4)cn3)nc2n(C2CCCC2)c1=O [Palbociclib] + CN(CC[C@H](CSC1=CC=CC=C1)NC2=C(C=C(C=C2)S(=O)(=O)NC(=O)C3=CC=C(C=C3)N4CCC(CC4)[C@H](C5=CC=CC=C5C6=CC=C(C=C6)Cl)O)S(=O)(=O)C(F)(F)F)CCO [AZD4320] (first compound max 10 µM, 7x7, partner max 1 µM) |  | 0.476 | 0.293 | 
CC1(C)CCC(CN2CCN(c3ccc(C(=O)NS(=O)(=O)c4ccc(NCC5CCOCC5)c([N+](=O)[O-])c4)c(Oc4cnc5[nH]ccc5c4)c3)CC2)=C(c2ccc(Cl)cc2)C1 [Venetoclax] + CCN(CCO)CCCOc1ccc2c(Nc3cc(CC(=O)Nc4cccc(F)c4)[nH]n3)ncnc2c1 [AZD2811] (first compound max 1 µM, 7x7, partner max 1 µM) |  | 0.577 | 0.158 | 
CC(=O)Nc1cccc(-n2c(=O)n(C3CC3)c(=O)c3c(Nc4ccc(I)cc4F)n(C)c(=O)c(C)c32)c1 [Trametinib] + Cc1nc(-c2cn3c(n2)-c2ccc(-c4cnn(C(C)(C)C(N)=O)c4)cc2OCC3)n(C(C)C)n1 [Taselisib] (first compound max 1 µM, 7x7, partner max 10 µM) |  | 0.88 | 0.626 | 
CN(CCO)CC[C@H](CSc1ccccc1)Nc1ccc(S(=O)(=O)NC(=O)c2ccc(N3CCC([C@@H](O)c4ccccc4-c4ccc(Cl)cc4)CC3)cc2)cc1S(=O)(=O)C(F)(F)F [AZD4320] + C[C@@H](Nc1cc(F)cc(F)c1)c1cc(C(=O)N(C)C)cc2c(=O)cc(N3CCOCC3)oc12 [AZD8186] (first compound max 1 µM, 7x7, partner max 3 µM) |  | 0.623 | 0.373 | 
Cc1c2c(nn1C)CSCc1cc(n(C)n1)CSc1cc(c3ccccc3c1)OCCCc1c(C(=O)O)n(C)c3c-2c(Cl)ccc13 [AZD5991] + Cn1cnc2c(F)c(Nc3ccc(Br)cc3Cl)c(C(=O)NOCCO)cc21 [Selumetinib] (first compound max 1 µM, 7x7, partner max 3 µM) |  | 0.492 | 0.336 | 
Cc1c2c(nn1C)CSCc1cc(n(C)n1)CSc1cc(c3ccccc3c1)OCCCc1c(C(=O)O)n(C)c3c-2c(Cl)ccc13 [AZD5991] + C[C@@H](Nc1cc(F)cc(F)c1)c1cc(C(=O)N(C)C)cc2c(=O)cc(N3CCOCC3)oc12 [AZD8186] (first compound max 1 µM, 7x7, partner max 3 µM) |  | 0.584 | 0.217 | 
COc1nnc2ccc(N3CCC(c4ccc(OCCN5CCN(C)C(=O)[C@H]5C)cc4)CC3)nn12 [AZD5153] + CN(CC[C@H](CSC1=CC=CC=C1)NC2=C(C=C(C=C2)S(=O)(=O)NC(=O)C3=CC=C(C=C3)N4CCC(CC4)[C@H](C5=CC=CC=C5C6=CC=C(C=C6)Cl)O)S(=O)(=O)C(F)(F)F)CCO [AZD4320] (first compound max 1 µM, 7x7, partner max 1 µM) |  | 0.251 | 0.34 | 
C[C@@H](c1ccc2nccn2c1)n1nnc2ncc(-c3cnn(C)c3)nc21 [Savolitinib] + CN(CC[C@H](CSC1=CC=CC=C1)NC2=C(C=C(C=C2)S(=O)(=O)NC(=O)C3=CC=C(C=C3)N4CCC(CC4)[C@H](C5=CC=CC=C5C6=CC=C(C=C6)Cl)O)S(=O)(=O)C(F)(F)F)CCO [AZD4320] (first compound max 1 µM, 7x7, partner max 1 µM) |  | 0.287 | 0.246 | 
CN(CCO)CC[C@H](CSc1ccccc1)Nc1ccc(S(=O)(=O)NC(=O)c2ccc(N3CCC([C@@H](O)c4ccccc4-c4ccc(Cl)cc4)CC3)cc2)cc1S(=O)(=O)C(F)(F)F [AZD4320] + C=CCn1c(=O)c2cnc(Nc3ccc(N4CCN(C)CC4)cc3)nc2n1-c1cccc(C(C)(C)O)n1 [AZD1775] (first compound max 1 µM, partner max 1 µM) |  | 0.563 | 0.399 | 
Cc1c2c(nn1C)CSCc1cc(n(C)n1)CSc1cc(c3ccccc3c1)OCCCc1c(C(=O)O)n(C)c3c-2c(Cl)ccc13 [AZD5991] + CN(C)CCCOc1ccc(-c2ccc3ncc4c(c3c2)n(C2CCOCC2)c(=O)n4C)cn1 [AZD0156] (first compound max 1 µM, 7x7, partner max 1 µM) |  | 0.665 | 0.203 | 
CC1(C)CCC(CN2CCN(c3ccc(C(=O)NS(=O)(=O)c4ccc(NCC5CCOCC5)c([N+](=O)[O-])c4)c(Oc4cnc5[nH]ccc5c4)c3)CC2)=C(c2ccc(Cl)cc2)C1 [Venetoclax] + C[C@@H]1COCCN1C2=NC(=NC(=C2)C3(CC3)[S@](=N)(=O)C)C4=C5C=CNC5=NC=C4 [AZD6738] (first compound max 1 µM, 7x7, partner max 10 µM) |  | 0.451 | 0.325 | 
CC1(C)CCC(CN2CCN(c3ccc(C(=O)NS(=O)(=O)c4ccc(NCC5CCOCC5)c([N+](=O)[O-])c4)c(Oc4cnc5[nH]ccc5c4)c3)CC2)=C(c2ccc(Cl)cc2)C1 [Venetoclax] + COc1cc(Nc2ncc3c(n2)-c2ccc(Cl)cc2C(c2c(F)cccc2OC)=NC3)ccc1C(=O)O [Alisertib] (first compound max 1 µM, 7x7, partner max 10 µM) |  | 0.665 | 0.273 | 
CN(CCO)CC[C@H](CSc1ccccc1)Nc1ccc(S(=O)(=O)NC(=O)c2ccc(N3CCC([C@@H](O)c4ccccc4-c4ccc(Cl)cc4)CC3)cc2)cc1S(=O)(=O)C(F)(F)F [AZD4320] + CCN(CCO)CCCOc1ccc2c(Nc3cc(CC(=O)Nc4cccc(F)c4)[nH]n3)ncnc2c1 [AZD2811] (first compound max 1 µM, 7x7, partner max 1 µM) |  | 0.741 | 0.157 | 
Cc1c2c(nn1C)CSCc1cc(n(C)n1)CSc1cc(c3ccccc3c1)OCCCc1c(C(=O)O)n(C)c3c-2c(Cl)ccc13 [AZD5991] + C1CN(CCC1(C(=O)N[C@@H](CCO)C2=CC=C(C=C2)Cl)N)C3=NC=NC4=C3C=CN4 [Capivasertib] (first compound max 1 µM, 7x7, partner max 3 µM) |  | 0.76 | 0.136 | 
CN(CCO)CC[C@H](CSc1ccccc1)Nc1ccc(S(=O)(=O)NC(=O)c2ccc(N3CCC([C@@H](O)c4ccccc4-c4ccc(Cl)cc4)CC3)cc2)cc1S(=O)(=O)C(F)(F)F [AZD4320] + Cn1cnc2c(F)c(Nc3ccc(Br)cc3Cl)c(C(=O)NOCCO)cc21 [Selumetinib] (first compound max 1 µM, 7x7, partner max 3 µM) |  | 0.568 | 0.47 | 
Cc1c2c(nn1C)CSCc1cc(n(C)n1)CSc1cc(c3ccccc3c1)OCCCc1c(C(=O)O)n(C)c3c-2c(Cl)ccc13 [AZD5991] + Cc1cc2ncnn2cc1Nc1ncc2c(n1)n(C1CCOCC1)c(=O)n2C [AZD7648] (first compound max 1 µM, 7x7, partner max 10 µM) |  | 0.515 | 0.196 | 
CC1(C)CCC(CN2CCN(c3ccc(C(=O)NS(=O)(=O)c4ccc(NCC5CCOCC5)c([N+](=O)[O-])c4)c(Oc4cnc5[nH]ccc5c4)c3)CC2)=C(c2ccc(Cl)cc2)C1 [Venetoclax] + C[C@@H](Nc1cc(F)cc(F)c1)c1cc(C(=O)N(C)C)cc2c(=O)cc(N3CCOCC3)oc12 [AZD8186] (first compound max 1 µM, 7x7, partner max 3 µM) |  | 0.28 | 0.117 | 
CC1(C)CCC(CN2CCN(c3ccc(C(=O)NS(=O)(=O)c4ccc(NCC5CCOCC5)c([N+](=O)[O-])c4)c(Oc4cnc5[nH]ccc5c4)c3)CC2)=C(c2ccc(Cl)cc2)C1 [Venetoclax] + CN(C)CCCOc1ccc(-c2ccc3ncc4c(c3c2)n(C2CCOCC2)c(=O)n4C)cn1 [AZD0156] (first compound max 1 µM, 7x7, partner max 1 µM) |  | 0.277 | 0.158 | 
CC1(C)CCC(CN2CCN(c3ccc(C(=O)NS(=O)(=O)c4ccc(NCC5CCOCC5)c([N+](=O)[O-])c4)c(Oc4cnc5[nH]ccc5c4)c3)CC2)=C(c2ccc(Cl)cc2)C1 [Venetoclax] + Cn1cnc2c(F)c(Nc3ccc(Br)cc3Cl)c(C(=O)NOCCO)cc21 [Selumetinib] (first compound max 1 µM, 7x7, partner max 3 µM) |  | 0.166 | 0.225 | 
Cc1c2c(nn1C)CSCc1cc(n(C)n1)CSc1cc(c3ccccc3c1)OCCCc1c(C(=O)O)n(C)c3c-2c(Cl)ccc13 [AZD5991] + C[C@@H]1COCCN1C2=NC(=NC(=C2)C3(CC3)[S@](=N)(=O)C)C4=C5C=CNC5=NC=C4 [AZD6738] (first compound max 1 µM, 7x7, partner max 10 µM) |  | 0.752 | 0.283 | 
CC1(C)CCC(CN2CCN(c3ccc(C(=O)NS(=O)(=O)c4ccc(NCC5CCOCC5)c([N+](=O)[O-])c4)c(Oc4cnc5[nH]ccc5c4)c3)CC2)=C(c2ccc(Cl)cc2)C1 [Venetoclax] + C=CCn1c(=O)c2cnc(Nc3ccc(N4CCN(C)CC4)cc3)nc2n1-c1cccc(C(C)(C)O)n1 [AZD1775] (first compound max 1 µM, partner max 1 µM) |  | 0.449 | 0.436 | 
